Data on 31 compounds can be found in ChEMBL document CHEMBL4304767 (ACS Med Chem Lett, 2019).

Series [1] addresses T1, Muscarinic acetylcholine receptor M4 (Homo sapiens, UniProt P08173).
T1 sequence (P08173 whole entry): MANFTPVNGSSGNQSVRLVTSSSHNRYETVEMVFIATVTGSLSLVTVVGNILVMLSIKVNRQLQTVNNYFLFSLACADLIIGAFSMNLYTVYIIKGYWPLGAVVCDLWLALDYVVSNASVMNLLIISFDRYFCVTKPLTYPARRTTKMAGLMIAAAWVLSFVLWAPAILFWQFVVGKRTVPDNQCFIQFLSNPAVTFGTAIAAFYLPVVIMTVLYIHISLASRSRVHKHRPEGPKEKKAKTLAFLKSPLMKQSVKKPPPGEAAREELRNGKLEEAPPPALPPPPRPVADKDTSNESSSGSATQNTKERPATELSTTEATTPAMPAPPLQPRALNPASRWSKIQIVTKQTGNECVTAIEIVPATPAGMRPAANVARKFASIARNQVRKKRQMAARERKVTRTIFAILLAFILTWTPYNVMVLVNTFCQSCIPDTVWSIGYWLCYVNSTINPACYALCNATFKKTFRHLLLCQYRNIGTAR
As to the kind of experiment: Agonist activity at human Muscarinic acetylcholine receptor M4 expressed in HEK cells co-expressing Glosensor construct assessed as decrease in isoproterenol-induced cAMP accumulation incubated for 7 mins in presence of isoproterenol by Glosensor cAMP reagent/plate reader based luminescence assay. It is filed as functional, cell-based. (In general: Changes in cAMP serve as a functional read-out for many G protein-coupled receptors.)

For series [2], the target named is T1, Muscarinic acetylcholine receptor M4. Description: Positive allosteric modulatory activity at human Muscarinic acetylcholine receptor M4 expressed in HEK cells co-expressing Glosensor construct assessed as as […] in acteylcholine-induced cAMP accumulation incubated for 7 mins in presence of isoproterenol/acetylcholine by Glosensor cAMP reagent/plate reader based luminescence assay. It is filed as functional, cell-based.

Series [3] has as its target T2, Muscarinic acetylcholine receptor M4 (Homo sapiens) (UniProt P08173).
T2 sequence (whole entry): T1 sequence (P08173 whole entry)
As to the kind of experiment: Positive allosteric modulatory activity at human Muscarinic acetylcholine receptor M4 expressed in HEK cells co-expressing Glosensor construct assessed as as increase in acteylcholine-induced cAMP accumulation at 10 uM to 0.3 nM incubated for 7 mins in presence of isoproterenol/acetylcholine by Glosensor cAMP reagent/plate reader based luminescence assay relative to acetylcholine. It is filed as functional, cell-based.

The target of series [4] is T2, Muscarinic acetylcholine receptor M4 (Homo sapiens). Description: Agonist activity at human Muscarinic acetylcholine receptor M4 expressed in HEK cells co-expressing Glosensor construct assessed as decrease in isoproterenol-induced cAMP accumulation at 10 uM to 0.3 nM incubated for 2 hrs in presence of isoproterenol and measured after 7 mins by Glosensor cAMP reagent/plate reader based luminescence assay relative to acetylcholine. It is filed as functional, cell-based.

The target of series [5] is T3, Muscarinic acetylcholine receptor M2 (Homo sapiens, UniProt P08172).
T3 sequence (P08172 whole entry): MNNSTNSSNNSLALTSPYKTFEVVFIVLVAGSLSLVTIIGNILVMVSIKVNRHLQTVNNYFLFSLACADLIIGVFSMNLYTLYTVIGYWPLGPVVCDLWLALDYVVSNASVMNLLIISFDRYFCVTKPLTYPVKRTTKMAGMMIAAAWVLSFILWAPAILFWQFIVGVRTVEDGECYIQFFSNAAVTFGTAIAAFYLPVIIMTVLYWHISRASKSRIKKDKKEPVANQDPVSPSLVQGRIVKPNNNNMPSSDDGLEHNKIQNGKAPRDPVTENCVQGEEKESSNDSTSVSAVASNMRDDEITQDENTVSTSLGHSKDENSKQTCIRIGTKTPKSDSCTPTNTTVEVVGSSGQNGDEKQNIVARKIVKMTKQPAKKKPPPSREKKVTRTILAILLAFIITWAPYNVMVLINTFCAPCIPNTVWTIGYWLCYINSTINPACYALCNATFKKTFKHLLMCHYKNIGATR
Description: Agonist activity at human Muscarinic acetylcholine receptor M2 expressed in HEK cells co-expressing Glosensor construct assessed as decrease in isoproterenol-induced cAMP accumulation incubated for 7 mins in presence of isoproterenol by Glosensor cAMP reagent/plate reader based luminescence assay. It is filed as cell-based.

Series [6] deals with T3, Muscarinic acetylcholine receptor M2. Description: Agonist activity at human Muscarinic acetylcholine receptor M2 expressed in HEK cells co-expressing Glosensor construct assessed as decrease in isoproterenol-induced cAMP accumulation at 10 uM to 0.3 nM incubated for 7 mins in presence of isoproterenol by Glosensor cAMP reagent/plate reader based luminescence assay relative to acetylcholine. It is filed as cell-based.

Series [7] has as its system mouse BCRP. As to the kind of experiment: Efflux ratio of permeability across basolateral to apical over apical to basolateral in Doxycycline induced dog MDCK cells transfected with mouse BCRP. It is filed as ADME, cell-based, Canis lupus familiaris.
Series [8] has as its system MDR1. Description: Efflux ratio of permeability across basolateral to apical over apical to basolateral in dog MDCK cells transfected with MDR1 gene. It is filed as ADME, cell-based, Canis lupus familiaris.

As a reminder, the EC50 is the concentration that produces a half-maximal response. As a reminder, the Emax is the size of the effect at its maximum, as opposed to the concentration needed. For orientation: efflux ratio means the permeability from basolateral to apical divided by that in the opposite direction, in the common usage.

With `COc1cccnc1C1CCN(C2CCCN(C(=O)OCC(C)C)CC2)CC1` (stereo not drawn), the EC50 in series [1] is more than 9930 nM.
Take `COc1cccnc1C1CCN(C2CCCN(c3nc(C)cs3)CC2)CC1` (stereo not drawn): the results for the EC50 in series [2] and in series [1] were more than 10000 nM and more than 2740 nM, respectively.
For `COc1cccnc1C1CCN(C2CCCN(c3cccnc3)CC2)CC1` (stereo not drawn), the concentration for a half-maximal effect (EC50) in series [2] amounted to 10000 nM. Further, the maximum response (Emax) in series [3] was 80%.
`COc1cccnc1C1CCN(C2CC3(CCN(c4cnccn4)C3)C2)CC1` (stereo not drawn): the maximum response (Emax) in series [4] is 100%. The half-maximal effective concentration (EC50) is more than 7350 nM in series [5] (read-out: EC50) and 228 nM in series [1]. Further, the Emax at 7 min in series [6] is 100%.
`COc1cccnc1C1CCN(C2CCCN(c3nccs3)CC2)CC1` (stereo not drawn): the EC50 in series [2] and in series [1] was more than 10000 nM throughout.
As for `COc1cccnc1C1CCN(C2CCCN(c3cccnn3)CC2)CC1` (stereo not drawn), in series [2], the EC50 is more than 10000 nM.
In the case of `COc1cccnc1C1CCN(C2CCCN(c3ccncc3)CC2)CC1` (stereo not drawn), the half-maximal effective concentration (EC50) in series [2] and in series [1] was more than 10000 nM throughout.
Consider `COc1cccnc1C1CCN(C2CCCN(c3nsnc3C)CC2)CC1` (stereo not drawn), for which the Emax in series [4] was determined as 107%. Further, the EC50 in series [1] was found to be 470 nM.
Take `O=C1CCCN1CC#CCN1CCCC1` [OXOTREMORINE]: the EC50 in series [2] was 9 nM. The maximum response (Emax) in series [4] was 94.4%; in series [3], 90.7%.
In the case of `COc1cccnc1C1CCN(C2CCCN(c3ncns3)CC2)CC1` (stereo not drawn), in series [4], the Emax stood at 101%. In series [1], the half-maximal effective concentration (EC50) amounted to 1100 nM.
Turning to `COc1cccnc1C1CCN(C2CCCN(C(=O)OC(C)C)CC2)CC1` (stereo not drawn), in series [1], the EC50 was more than 9250 nM.
Regarding `CCOC(=O)N1CCC2(CC(N3CCC(c4ncccc4OC)CC3)C2)C1` (stereo not drawn), in series [4], the maximal effect (Emax) turned out to be 90%. Besides, the results for the EC50 in series [5] (read-out: EC50) and in series [1] were more than 10000 nM and 9 nM, respectively.
Consider `CCNS(=O)(=O)N1CCCC(N2CCC(c3ncccc3OC)CC2)CC1` (stereo not drawn), for which, in series [1], the concentration giving a half-maximal response (EC50) was more than 10000 nM.
In the case of `CCOC(=O)N1CCCC(N2CCC(c3ncccc3OC)CC2)CC1` (stereo not drawn), the maximal effect (Emax) in series [4] fell in the range of 99 to 99.1%. Also, the EC50 in series [5] (read-out: EC50) was 2520 nM; in series [1], 11 nM. Also, the maximal response (Emax) at 7 min in series [6] stood at 83%.
In the case of `COc1cccnc1C1CCN(C2CCCN(c3nncs3)CC2)CC1` (stereo not drawn), the EC50 in series [2] and in series [1] was more than 10000 nM in each case.
Regarding `COc1cccnc1C1CCN(C2CCCN(c3ccccn3)CC2)CC1` (stereo not drawn), in series [2], the concentration giving a half-maximal response (EC50) was more than 10000 nM.
Consider `CCOC(=O)N1CCC2(CC(N3C[C@@H]4[C@H](C3)[C@@H]4c3nccn3-c3ccccc3)C2)C1` (stereo partly drawn), for which the maximal effect (Emax) in series [4] worked out at 99%. Besides, the figures for the EC50 in series [5] (read-out: EC50) and in series [1] were 5160 nM and 3 nM, respectively. Further, the Emax at 7 min in series [6] is 100%.
For the compound `COc1cccnc1C1CCN(C2CCCN(c3cnc(C)cn3)CC2)CC1` (stereo not drawn), in series [4], the maximal effect (Emax) is 51%. Moreover, the 50% effective concentration (EC50) in series [1] was more than 4160 nM.
Take `COc1cccnc1C1CCN(C2CCCN(c3ncccn3)CC2)CC1` (stereo not drawn): in series [2], the EC50 was more than 10000 nM.
Consider `COc1cccnc1C1CCN(C2CCCN(c3cnccn3)CC2)CC1` (stereo not drawn), for which the 50% effective concentration (EC50) came to 25 nM in series [2], 250 nM in series [5] (read-out: EC50) and 16 nM in series [1]. The maximal response (Emax) in series [4] was found to be 96.8%; in series [3] it was 95.9%. In addition, the maximum response (Emax) at 7 min in series [6] came out at 104%.
As to `COc1cccnc1C1CCN(C2CCCN(c3cnsn3)CC2)CC1` (stereo not drawn), in series [4], the Emax is 109%. Besides, the EC50 in series [1] was found to be 20 nM.
Turning to `CCOC(=O)N1CCC(CN2CCC(c3ncccc3OC)CC2)CC1`, the maximal effect (Emax) in series [4] stood at 82%. Besides, the concentration giving a half-maximal response (EC50) result in series [5] is “Not Active”; in series [1], 23 nM.
As for `COc1cccnc1C1CCN(C2CCCN(c3nsnc3OC)CC2)CC1` (stereo not drawn), in series [4], the maximum response (Emax) stood at 94%. Also, the EC50 in series [1] turned out to be 2510 nM.
On to `COc1cccnc1C1CCN(CC2CCN(c3cnccn3)CC2)CC1`, for which, in series [4], the Emax was 78%. In addition, the efflux ratio was determined as 1.62 in series [7] and 3.89 in series [8]. Further, the EC50 in series [5] (read-out: EC50) is more than 8830 nM; in series [1], 296 nM. Also, the maximal effect (Emax) at 7 min in series [6] amounted to 102%.
Consider `c1ccc(-n2ccnc2[C@@H]2[C@@H]3CN(C4CC5(CCN(c6cnccn6)C5)C4)C[C@@H]32)cc1` (stereo partly drawn), for which, in series [4], the maximal effect (Emax) was 83.8%. Besides, the EC50 in series [5] (read-out: EC50) is 420 nM; in series [1], 7 nM. In addition, the Emax at 7 min in series [6] turned out to be 79.4%.
On to `COc1cccnc1C1CCN(C2CCCN(c3cncnc3)CC2)CC1` (stereo not drawn), for which the EC50 in series [2] was more than 10000 nM.
`CCNC(=O)N1CCCC(N2CCC(c3ncccc3OC)CC2)CC1` (stereo not drawn): the EC50 in series [1] was more than 5990 nM.
Take `CCCCCCOc1nsnc1C1=CCCN(C)C1`: the Emax in series [3] worked out at 100%.
`CCCC(=O)N1CCCC(N2CCC(c3ncccc3OC)CC2)CC1` (stereo not drawn): in series [1], the half-maximal effective concentration (EC50) was more than 8880 nM.
As to `COc1cccnc1C1CCN(C2CCCN(c3nccnc3C)CC2)CC1` (stereo not drawn), the EC50 in series [2] was 3410 nM; in series [1] it was 3550 nM. Besides, the maximum response (Emax) in series [4] came to 120%.
Taken in the same sequence, the figures for `COc1cccnc1C1CCN(C2CCCN(c3cncc(C)n3)CC2)CC1` (stereo not drawn) were more than 10000 nM, 9830 nM and 100%.
